Read-outs that look alike come from different tables or passages of the source.
Experiments:
[1] = test system: glioblastoma (SNB-19) cells; conditions: cited from earlier work
[2] = test system: amelanotic melanoma (C-32) cells; conditions: cited from earlier work
[3] = test system: breast cancer T47D cells; conditions: cited from earlier work
[4] = test system: breast cancer T47D cells; assay: WST-1 cell viability assay, T47D; type: cell-based, human; conditions: Homo sapiens, T47D, 72 h, read-out: IC50 ± SD, T47D
Procedure: (§1) Evaluation of the effect of new betulin derivatives on the viability of the cultured cells was performed using the WST-1(water soluble tetrazolium salt) assay. Betulin 1 and cisplatin were used as the reference compounds.
(§2) The synthesized compounds and references were tested for cytotoxic activity in vitro against human cancer cell lines such as amelanotic melanoma (C-32, ATCC, Rockville, MD, USA), glioblastoma (SNB-19, DSMZ, Braunschweig, Germany), and breast cancer (T47D, and MDA-MB-231, ATCC, Rockville, MD, USA). Cell cultures were maintained using DMEM (Lonza, Basel, Switzerland) supplemented with 10% fetal bovine serum (FBS) (Biological Industries Cromwell, CT, USA) and penicillin (10,000 U/mL) –streptomycin (10 mg/mL) mix (Lonza, Basel, Switzerland).
(§3) Cultures were performed in 96-well plates (Nunc Thermo Fisher Scientific, Waltham, MA, USA). Cells were seeded at 5 × 10^4/well and incubated for 24 h (at 37 °C, 5% CO2, constant humidity). Then, the medium was replaced with a fresh one with the addition of test compounds in the concentration: 25; 12.5; 6.25; 3.12; 1.56; 0.78; 0.39; 0 µg/mL and incubated again for a further 72 h. After this time, the WST-1 test (Roche Molecular Biochemicals, Mannheim, Germany) was performed to assess the metabolic activity of the cells. The principle of the WST-1 colorimetric test is based on the ability of live cells to decompose bright red tetrazole salts of WST-1 to dark red formazan. The reaction is mediated by mitochondrial dehydrogenases and correlates with the number of cells and their metabolic activity. The absorbance was measured at λ = 450 nm with a UVM340 microplate reader (Biogenet, Józefów, Poland). Results were expressed as a mean value of at least three independent experiments performed in triplicate.

[5] = test system: amelanotic melanoma (C-32) cells; assay: WST-1 cell viability assay, C-32; type: cell-based, human; conditions: WST-1, 72 h, read-out: IC50 ± SD, C-32
Procedure: as §1, §2, §3

[6] = test system: breast cancer MDA-MB-231 cells; assay: WST-1 cell viability assay, MDA-MB-231; type: cell-based, human; conditions: Homo sapiens, MDA-MB-231, 72 h, read-out: IC50 ± SD, MDA-MB-231
Procedure: as §1, §2, §3

[7] = RP-TLC experimental lipophilicity; type: physicochemical; conditions: for RM0 / logPTLC: RP-TLC; for RM0: acetone/Tris buffer pH 7.4, extrapolated to zero acetone; for logPTLC: from RM0 by calibration equation; for -b: slope of regression plot RM = RM0 + bC
From the text: Lipophilicity is an important physicochemical parameter related to the biological activity of compounds. This descriptor, contained in Lipiński’s rule of five, concerns the transport of a compound through the biological membrane system and the formation of a compound–receptor complex. To assess the lipophilic nature of triterpenoids 3–5, 6a–6e, and 7a–7e, the reverse phase chromatography (RP-TLC) method was used (chromatographic procedure by RP-TLC is included in the Supplementary Materials). The theoretical characteristics of the chromatographic parameters (RM0, log PTLC) of the tested derivatives were also performed. […]
Chromatographic procedure by RP-TLC
The experimental lipophilicity parameters was determined using reversed-phase thin-layer chromatography (RP-TLC). The stationary phase was an aluminium backed silica gel RP-18 F254 S plates (Merck, Darmstadt, Germany). Chloroform solutions of reference compounds […]
(acetanilide, 4-bromoacetophenone, benzophenone, anthracene, DDT) and triterpenes 3-5, 6a-6e and 7a-7e were spotted on to the plates in the amount of 2 µL. The chromatograms were performed in triplicate for each compound. The chromatographic chambers were filled of mobile phases consisting of a mixture of acetone (POCh, Gliwice, Poland) and aqueous solution of buffer Tris [(tris-hydroxymethyl)aminomethane] (Fluka, Loughborough, 0.2 M, pH 7.4). The percent acetone volume was varied within the range of 90-60%, in 5% increments. The spots of compounds were visualized by spraying the plates with 10% ethanolic solution of sulphuric acid (VI) and heating for 3 min at 110°C [60]]. The RM values were calculated by the equation RM = log (1/Rf-1) on the basis of average Rf values. The RM0 parameters were obtained by extrapolating on the acetone content to zero, according to the equation RM = RM0 + bC (C – the percentage concentration of acetone in the mobile phase, b – the slope of the regression plot).
The experimental lipophilicity as log PTLC for triterpenes 3-5, 6a-6e and 7a-7e was calculated […]
obtained on the correlation between the literature log Plit values and the experimental RM0 values […]
Table S5. The theoretical values of lipophilicity for tested compounds 3-5, 6a-6e and 7a- […]
Table S6. The correlation matrix for theoretically obtained lipophilicity parameters of compounds 3-5, 6a-6e and 7a-7e. […]

[8] = test system: glioblastoma (SNB-19) cells; assay: WST-1 cell viability assay, SNB-19; type: cell-based, human; conditions: WST-1, 72 h, read-out: IC50 ± SD, SNB-19
Procedure: as §1, §2, §3

[9] = test system: BAX/BCL-2 mRNA in SNB-19 and C-32 cells; assay: qRT-PCR BAX/BCL-2 ratio; type: cell-based, human; conditions: 24 h, half of IC50
Procedure: (§4) In our work, we assessed the influence of the tested compounds on the expression of selected genes related to apoptosis. […] We examined their influence on the transcriptional activity of genes encoding a proliferation marker (histone H3), a cell cycle regulator (p53), and proteins related to the mitochondrial apoptosis pathway (BCL-2 and BAX). The study was performed after 24-h exposure of the cultured cells to the test compounds (half of IC50).
(§5) The influence of tested compounds on the transcriptional activity of cells of the genes H3, TP53, BCL-2, and BAX was investigated. Assays were performed by real-time qRT-PCR on an Opticon TM DNA Engine (MJ Research, USA) using the QuantTect® SYBR® Green qRT-PCR Kit (Qiagen, Valencia, […]). Cells were exposed to compound 7a and 7b for 24 h at a concentration equal to half of IC50 for appropriate cell line. For the reference compound, cisplatin, concentrations were 0.8 µg/mL (SNB-19 line) and 0.6 µg/mL (C-32 line). RNA extraction was performed on spin columns using the Quick RNATM MiniPrep kit (Zymo Research, Irvine, CA, USA). RNA extracts were assessed qualitatively and quantitatively. Total RNA integrity was checked electrophoretically on a 1.2% agarose gel with ethidium bromide. The amount and purity of total RNA in the extracts were determined spectrophotometrically with the HP8452A spectrophotometer (Hewlett Packard, Waldbronn, Germany).

[10] = test system: histone H3 mRNA in SNB-19 and C-32 cells; assay: qRT-PCR expression of H3; type: cell-based, human; conditions: 24 h, half of IC50
Procedure: as §4, §5

[11] = test system: TP53 mRNA in SNB-19 and C-32 cells; assay: qRT-PCR expression of TP53; type: cell-based, human; conditions: 24 h, half of IC50
Procedure: as §4, §5

Structure (SMILES)	IC50 [1] [µM]	IC50 [2] [µM]	IC50 [3] [µM]	IC50 [4] [µM]	IC50 ([5]; Homo sapiens, C32, 72 h) [µM]	IC50 [6] [µM]	melting point [°C]	RM0 [7]	logPTLC [7]	-b [7]	IC50 ([8]; Homo sapiens, SNB-19, 72 h) [µM]	mRNA copy number BAX to BCL-2 ratio [9]	number of mRNA copies of histone H3 gene vs control [10]	number of mRNA copies of TP53 [11]	IC50 [5] [µM]	IC50 [8] [µM]
C#CC(=O)OC[C@]12CC[C@@H](C(=C)C)[C@@H]1[C@H]1CC[C@@H]3[C@@]4(C)CC[C@H](O)C(C)(C)[C@@H]4CC[C@@]3(C)[C@]1(C)CC2 [28-O-propynoylbetulin]	4.2	16.7	111	–	–	–	–	–	–	–	–	–	–	–	–	–
C=C(COP(=O)(OCC)OCC)[C@@H]1CC[C@]2(COC(=O)C#Cc3ccccc3)CC[C@]3(C)C(CCC4[C@@]5(C)CC[C@H](OC(=O)C#Cc6ccccc6)C(C)(C)C5CC[C@]43C)C12 (some centres unmarked) [Compound 6d, 30-Diethoxyphosphoryloxy-3,28-di(2-phenylpropynoyl)betulin]	–	–	–	> 50	31.5 ± 1.56	> 50	89 to 91	7.877	10.174	0.086	11.2 ± 0.28	–	–	–	–	–
C#CC(=O)OC[C@]12CC[C@@H](C(=C)COP(=O)(OCC)OCC)C1C1CCC3[C@@]4(C)CC[C@H](O)C(C)(C)C4CC[C@@]3(C)[C@]1(C)CC2 (some centres unmarked) [Compound 7a, 30-Diethoxyphosphoryloxy-28-propynoylbetulin]	–	–	–	2.61 ± 0.42	2.15 ± 0.22	6.2 ± 0.22	177 to 180	5.318	6.937	0.062	0.91 ± 0.09	increased the mRNA copy number to BAX and BCL-2 ratio	reduced the number of mRNA copies of the histone H3 gene	increase the number of mRNA copies of TP53	–	–
C=C(COP(=O)(OCC)OCC)[C@@H]1CC[C@]2(COC(=O)C#CC)CC[C@]3(C)C(CCC4[C@@]5(C)CC[C@H](O)C(C)(C)C5CC[C@]43C)C12 (some centres unmarked) [Compound 7b, 28-(2-Butynoyl)-30-diethoxyphosphoryloxybetulin]	–	–	–	15.4 ± 0.51	0.76	4.93 ± 0.44	133 to 136	5.431	–	0.063	0.8	increased the mRNA copy number to BAX and BCL-2 ratio	reduced the number of mRNA copies of the histone H3 gene	increase the number of mRNA copies of TP53	0.8 ± 0.03	0.76 ± 0.14
C=C(COP(=O)(OCC)OCC)[C@@H]1CC[C@]2(COC(=O)C#CC3CC3)CC[C@]3(C)C(CCC4[C@@]5(C)CC[C@H](O)C(C)(C)C5CC[C@]43C)C12 (some centres unmarked) [Compound 7c, 28-(2-Cyclopropylpropynoyl)-30-diethoxyphosphoryloxybetulin]	–	–	–	> 50	11.9 ± 0.52	9.11 ± 0.39	133 to 134	5.587	7.277	0.064	6.29 ± 0.12	–	–	–	–	–
C=C(COP(=O)(OCC)OCC)[C@@H]1CC[C@]2(COC(=O)C#Cc3ccccc3)CC[C@]3(C)C(CCC4[C@@]5(C)CC[C@H](O)C(C)(C)C5CC[C@]43C)C12 (some centres unmarked) [Compound 7d, 30-Diethoxyphosphoryloxy-28-(2-phenylpropynoyl)betulin]	–	–	–	9.47 ± 0.03	6.9 ± 0.4	> 50	131 to 134	6.145	7.982	0.070	4.38 ± 0.04	–	–	–	–	–
